“Also recorded” adds a separate entry of the source.
What was measured:
pre-GT20 cells = experiment: Cisplatin treatment of tumor sphere cultures, SOX9 staining and cell counts; assay type: cell-based, mouse; settings: pre-GTS tumor spheres, 10 µM, 72 h in culture
Method: Brains were fixed in 4% PFA and embedded in paraffin block. preGT20 sphere cultures were fixed in 4 % PFA for a minimum of 12 hours at 4° C. and then embedded in HistoGel followed by paraffin embedding. 6-7 µm sections of paraffin-embedded tissue were used for all staining. The complete protocol for the IHC was described previously (Genes & development 2010, 24: 1059-1072).
(§1) To assess cell proliferation, 10 000 cells were plated in triplicates in 96-well plate. Proliferation was measured every 24 h for five days using Resazurin colorimetric assay. The MGMT inhibitor Lomeguatrib was dissolved in DMSO and added to cells 24 h post cell plating to a final concentration of 20 µM. ThioTEPA was dissolved in DMSO and added similarly to a final concentration of 10-100 µM. Doxorubicin was dissolved in H2O and added to a final concentration of 100-120 nM. Spheres from pre-GT20 cells were treated with Cisplatin at a final concentration of 10 µM. Number of SOX9-positive cells per spheres was counted in 10 spheres in treated (Cisplatin) and untreated (DMSO) conditions. Statistical significance was calculated using a unpaired non-parametric Mann-Whitney test.

GTML-pSOX9-GFP cells = experiment: FACS quantification of GFP (SOX9)-positive cells after cisplatin treatment; assay type: cell-based, mouse; settings: 24 h treatment
Method: Tumor burdened GTML;SOX9-eGFP mice were sacrificed and tumors dissociated, cells cultured as we described above. Cells were harvested, accutased and filtered with 30 µm cell strainer, then sorted for GFP-positive (SOX9) cells (488_FITC-A) and GFP-negative cell population. For cisplatin treatment experiment, cells were treated with cisplatin 24 h before cell sorting. The BD FACSMelody was used for sorting and quantifying in this experiment. MB002-pSOX9-GFP cells were dissociated using accutase and sorted for GFP expression (488_FITC-A). The BD FACSarialll was used for this experiment and it was analyzed using BD FACSDiVa version 8.0.

GTS cells = experiment: Drug treatment and proliferation assay (Resazurin/Alamar blue), recurrent tumor cells; assay type: cell-based, mouse
Method: Tumor cells (GTML, GTS and preGTS) were isolated as previously described from tumor bearing mice (Cancer Cell 2012, 21: 601-613) and cultured as neurospheres in serum-free conditions with Neurobasal (NB) media, additional B27 supplement, 100 units Penicillin and 0.1 mg/ml Streptomycin, 2 mM L-glutamine, 1:500 Antibiotic-Antimycotic, 20 ng/ml EGF and 20 ng/ml FGF-2. Human MB002 primary cell culture was obtained from Dr. Yoon Jae-Cho and cultured in serum-free conditions, 1:1 of Neurobasal Media (-vitamin A) and DMEM/F12 with Sodium Pyruvate, NEAA, HEPES, GlutaMAX, 100 units Penicillin and 0.1 mg/ml Streptomycin, B27 supplement, 20 ng/ml EGF and 20 ng/ml FGF-2, 1X LIF and 1X Heparin as previously described Clin Cancer Res 2014, 20: 912-925. Stable doxycycline-inducible SOX9wt and SOX9CPD mutant cell lines were generated as described (EMBO J 2016, 35: 2192-2212), lentiviruses were first packed in HEK293T cells by the specified pTRIPZ lentivector with the packaging plasmids, psPAX2 and pMD2.G. Supernatants containing viral particles (48 - 96 hours post transfection) were used to infect the target cells in the presence of freshly added hexadimethrine bromide ([…]). Seventy-two hours post-transfection, the cells were selected and maintained in appropriate culture medium containing puromycin (0.125 - 0.5 µg/mL).
as §1, with “The MGMT inhibitor Lomeguatrib was dissolved in DMSO and added to cells 24 h post cell plating to a final concentration of 20 µM.” left out

GTML cells = experiment: Drug treatment and proliferation assay (Resazurin/Alamar blue), primary tumor cells; assay type: cell-based, mouse
Method: Tumor cells (GTML, GTS and preGTS) were isolated as previously described from tumor bearing mice (Cancer Cell 2012, 21: 601-613) and cultured as neurospheres in serum-free conditions with Neurobasal (NB) media, additional B27 supplement, 100 units Penicillin and 0.1 mg/ml Streptomycin, 2 mM L-glutamine, 1:500 Antibiotic-Antimycotic, 20 ng/ml EGF and 20 ng/ml FGF-2. Human MB002 primary cell culture was obtained from Dr. Yoon Jae-Cho and cultured in serum-free conditions, 1:1 of Neurobasal Media (-vitamin A) and DMEM/F12 with Sodium Pyruvate, NEAA, HEPES, GlutaMAX, 100 units Penicillin and 0.1 mg/ml Streptomycin, B27 supplement, 20 ng/ml EGF and 20 ng/ml FGF-2, 1X LIF and 1X Heparin as previously described Clin Cancer Res 2014, 20: 912-925. […]
To assess cell proliferation, 10 000 cells were plated in triplicates in 96-well plate. Proliferation was measured every 24 h for five days using Resazurin colorimetric assay. […] Number of SOX9-positive cells per spheres was counted in 10 spheres in treated (Cisplatin) and untreated (DMSO) conditions. Statistical significance was calculated using a unpaired non-parametric Mann-Whitney test.

[1] = in children and in adults; cited from earlier work
[2] = system: GTML2 and GTML3 cerebellar allografts; experiment: Survival of Nude mice allografted with GTML cell lines after dox diet (minimal residual disease); assay type: in vivo, mouse; settings: 7 days of dox treatment
Method: Injections of tumor cells into mouse brains were performed as thoroughly described elsewhere (Cancer Cell 2016, 29: 311-323; Cancer Cell 2012, 21: 601-613) and as follows. For allograft and in vivo transplantation studies, adult Nude mice were anesthetized and cerebellar allografts generated by injection of 100,000 cells into the cerebellum. Mice were monitored until phenotypic presentation of a brain tumor, at which point they were euthanized. At sacrifice, whole brains were excised and biopsies taken for experimental procedures. PDX models used included BT084 (metastatic SHH MB established in Dr. Till Milde’s lab, Heidelberg, Germany), Med-211FH, Med-411FH (metastatic Group 3 MBs established in Dr. Jim Olson’s lab, Seattle, USA) and ICb-1572MB (metastatic Group 3 MB established in Dr. Xiaonan Li’s lab, Houston, USA) all obtained from Dr. Robert Wechsler-Reya’s lab and used as described elsewhere (Cancer Cell 2016, 29: 311-323). Orthotopic PDX growth was studied in brain and spinal cord in NSG mice that were maintained in the animal facilities at Sanford Burnham Prebys Medical Discovery Institute (SBP) and at the Sanford Consortium for Regenerative Medicine. […]
All animal experiments were conducted once. Animal survival was graphically shown as a Kaplan Meier curve, made and assessed using GraphPad Prism 7 software. The p-value for survival curves is calculated using a LogRank test.

## N.N.[Cl][Pt][Cl] [cisplatin, Cisplatin]
pre-GT20 cells
  cell survival and apoptotic cell death: decreased cell survival and massive apoptotic cell death
pre-GT20 cells; vs DMSO
  number of SOX9-positive cells surviving the treatment: significant upregulation and increase in the number of SOX9-positive cells
GTML-pSOX9-GFP cells; FACS of GFP-positive cells
  number of SOX9-positive cells compared to DMSO control: increases the number of SOX9-positive cells
GTML-pSOX9-GFP cells; GFP-positive cells by FACS, increase from 2.4% (DMSO control)
  SOX9-positive cells: 8.6%

## COc1cccc2c1C(=O)c1c(O)c3c(c(O)c1C2=O)C[C@@](O)(C(=O)CO)C[C@@H]3O[C@H]1C[C@H](N)[C@H](O)[C@H](C)O1 [doxorubicin]
GTS cells; 200 nM, 72 h
  viable fGTS (forebrain recurrence) cells: completely depleted
  viable hGTS (hindbrain recurrence) cells: nearly half of the cells were still viable
GTML cells; 200 nM, 72 h
  viable GTML cells: nearly half of the cells were still viable

## CC(C)[C@H](N)C(=O)OCC(CO)OCn1cnc2c(=O)nc(N)[nH]c21 (stereo partly drawn) [ValGCV, valganciclovir]
[1]
  blood brain barrier penetration: penetrates the BBB well
  concentration in the cerebrospinal fluid (CSF): high concentrations

## COc1cc2ncnc(Nc3ccc(F)c(Cl)c3)c2cc1OCCCN1CCOCC1 [Gefitinib]
GTS cells; data not shown
  specificity for targeting forebrain GTS cells: not specific for targeting forebrain GTS cells

## Nc1nc(OCc2cc(Br)cs2)c2[nH]cnc2n1 [Lomeguatrib]
GTS cells; 10 µM Lomeguatrib added to ThioTEPA (10, 100 µM), 72 h
  proliferation of GTS cells, combination with ThioTEPA: decreased proliferation of GTS tumor cells even further; also recorded: significantly decreases proliferation
GTS cells; 20 µM, 24, 48 and 72 h, GT20 and GT21 cell lines
  proliferation of GTS cells: significantly decreased proliferation
GTML cells; 20 µM, 24, 48 and 72 h, GTML3 and GTML13 cell lines
  proliferation of GTML cells: did not show any efficacy

## C[C@H]1c2cccc(O)c2C(=O)C2=C(O)[C@]3(O)C(=O)C(C(N)=O)=C(O)[C@@H](N(C)C)[C@@H]3[C@@H](O)[C@@H]21 [dox, doxycycline hyclate]
[2]
  overall survival, GTML2 allograft: 16.5 weeks
  overall survival, GTML3 allograft: 9 weeks

From patent US20230304097A1, “PREDICTING CANCER RELAPSE AND TREATMENT OF CANCER DISEASES” (priority 2020, published 2023)
